The values that follow are results of earlier work, collected in patent US6498171B2, “Hydroxyomeprazole compositions” (Sepracor Inc., priority 1998, dated 2002).

One may read the IC50 as the concentration that inhibits the measured activity by half.

The test system of one data set is isolated gastric glands. Particulars: read-out: IC50, inhibitory effect on aminopyrine uptake.
For data set [1] the following is noted: poor metabolizers vs extensive metabolizers, serum.
The conditions of data set [2]: humans.

Regarding `COc1ccc2[nH]c([S+]([O-])Cc3ncc(CO)c(OC)c3C)nc2c1` (racemic) [racemic hydroxyomeprazole], the IC50 with isolated gastric glands is 33 µM.
`COc1ccc2nc(S(=O)(=O)Cc3ncc(C)c(OC)c3C)[nH]c2c1` [omeprazole sulfone]: the “8-hour AUC, poor metabolizers relative to extensive metabolizers” value in data set [1] is reported as “more than 10 times higher”.
As to `COc1ccc2[nH]c([S+]([O-])Cc3ncc(C)c(OC)c3C)nc2c1` (racemic) [racemic omeprazole, Omeprazole], the IC50 with isolated gastric glands is 0.48 µM. For the same compound, the “Cmax is at (time)” value in data set [2] is 0.5 to 3.5 h. Further, the serum half-life in data set [2] (highly variable) is 30 to 60 min.
